Laboratory results published in patent US20240024290A1, “PHARMACEUTICAL COMPOSITIONS COMPRISING CANNABINOID AGONIST” (ARTELO BIOSCIENCES LIMITED, priority 2020, published 2024).
Entries after “also recorded” stand apart in the source; their conditions may differ.

Assay: Forced degradation study of the active substance (HPLC assay area %, sample observations)
Assay type: physicochemical
Method: HPLC Conditions • Instrument: Agilent 1100/1200 • Column: YMC Triart Phenyl, 4.6×150 mm. 3 μm particle size (ex-YMC P.N.TPH12S03-1546PTH) • Mobile Phase: A—10 mM Ammonium acetate pH 6.0 • B—Acetonitrile • Flow Rate: 1.0 ml·min-1 • Injection Volume: 5 μl • Detection: UV @ 220 nm • Column Temp: 30° C. • Post Run: 4 minutes
• Diluent: Acetonitrile:deionised water (1:1) • Standard Solution: Make up a solution of 0.2 mg/ml. This is to be made up fresh prior to use at T=3 and T=7 days.
Accurately weigh […] of the active substance into a 100 mL volumetric flask and dissolve in 50 mL of diluent. Dilute the resulting solution to volume with diluent and mix well.
Table 1 below details the different study tests performed. All solution samples are prepared and stored in sealed vials and heated samples are cooled to ambient prior to sampling to prevent evaporation. Analysis took place on days 3 and 7 after stressing initiation for solutions described for Tests 1-6 and once exposure was complete for samples described in Tests 7-10. Due to the low levels of degradation observed at 7 days, Tests 3, 4 and 5 were heated to 80° C. for a further 4 days and analysed, and Test 6 was analysed after a further 6 days.
The photostability samples were exposed to a total of 1.92 million lux hours and an integrated near-UV energy of 374.6 Whm^−2.

CCS(=O)(=O)Nc1ccc2c(c1)nc(C(C)(C)C)n2CC1CCC(F)(F)CC1 [Compound I, N-(2-(tert-butyl)-1-((4,4-difluorocyclohexyl)methyl)-1H-benzimidazol-5-yl)ethanesulfonamide]
Sample observations (Test 1 Control (solution, ambient temperature), over study period, listed as active substance): Clear colourless solution; also recorded: No change over study period | Assay of active substance (area %) (Test 1 solution control, 0 days): 99.40 area % | Assay of active substance (area %) (Test 1 solution control, 3 days): 99.42 area % | Assay of active substance (area %) (Test 1 solution control, 7 days): 99.30 area % | Assay of active substance (area %) (Test 1 solution control, 11 days): 99.39 area % | Sample observations (Test 2 Solid state 100° C., over study period, listed as active substance): orange solid over study period. | Assay of active substance (area %) (Test 2 solid state at 100° C., 3 days): 99.43 area % | Assay of active substance (area %) (Test 2 solid state at 100° C., 7 days): 99.40 area % | Sample observations (Test 3 Acid 60° C., over study period, listed as active substance): Clear colourless solution; also recorded: No change over study period | Sample observations (Test 3 Acid (1M, ambient), over study period, listed as active substance): No change over study period; also recorded: Clear colourless solution | Assay of active substance (area %) (Test 3 acid (1M) ambient temperature, 3 days): 99.40 area % | Assay of active substance (area %) (Test 3 acid (1M) ambient temperature, 7 days): 99.41 area % | Assay of active substance (area %) (Test 3 acid (1M) at 60° C. until day 7, 80° C. until day 11, 11 days): 98.87 area % | Assay of active substance (area %) (Test 3 acid (1M) at 60° C., 3 days): 99.37 area % | Assay of active substance (area %) (Test 3 acid (1M) at 60° C., 7 days): 99.35 area % | Sample observations (Test 4 Base 40° C. (so in the source), over study period, listed as active substance): Clear colourless solution; also recorded: No change over study period | Sample observations (Test 4 Base (0.5M, ambient), over study period, listed as active substance): Clear colourless solution; also recorded: No change over study period | Assay of active substance (area %) (Test 4 base (0.5M) ambient temperature, 3 days): 99.40 area % | Assay of active substance (area %) (Test 4 base (0.5M) ambient temperature, 7 days): 99.37 area % | Assay of active substance (area %) (Test 4 base (0.5M) at 60° C. until day 7, 80° C. until day 11, 11 days): 99.16 area % | Assay of active substance (area %) (Test 4 base (0.5M) at 60° C., 3 days): 99.34 area % | Assay of active substance (area %) (Test 4 base (0.5M) at 60° C., 7 days): 99.32 area % | Sample observations (Test 5 Heat 60° C. (solution), over study period, listed as active substance): Clear colourless solution; also recorded: No change over study period | Assay of active substance (area %) (Test 5 solution at 60° C. until day 7, 80° C. until day 11, 11 days): 98.00 area % | Assay of active substance (area %) (Test 5 solution at 60° C., 3 days): 99.13 area % | Assay of active substance (area %) (Test 5 solution at 60° C., 7 days): 99.34 area % | Sample observations (Test 6 Peroxide (1.5%), over study period, listed as active substance): Clear colourless solution; also recorded: No change over study period | Assay of active substance (area %) (Test 6 peroxide (1.5%), 3 days): 98.50 area % | Assay of active substance (area %) (Test 6 peroxide (1.5%), 7 days): 97.75 area % | Assay of active substance (area %) (Test 6 peroxide (1.5%), 13 days): 96.58 area % | Sample observations (Test 7 Photostability (Solution Control), listed as active substance): Clear colourless solution; also recorded: No change over study period | Assay of active substance (area %) (Test 7 photocontrol solution): 99.40 area % | Assay of active substance (area %) (Test 8 photo treated solution (1.92 million lux hours, 374.6 Whm^-2 near-UV)): 74.53 area % | Sample observations (Test 9 Photostability (Solid Control)): Off white solid. No change over study period. | Assay of active substance (area %) (Test 9 photocontrol solid): 99.40 area % | Sample observations (Test 10 Photostability (Solid Treated), listed as active substance): orange solid over study period. | Assay of active substance (area %) (Test 10 phototreated solid (1.92 million lux hours, 374.6 Whm^-2 near-UV)): 99.31 area % | Forced degradation outcome (as a solution under photostability conditions): Major degradation | Forced degradation outcome (peroxide conditions, 1M acid and 0.5M base extended to 80° C., solution heated to 80° C.): slight degradation | Forced degradation outcome (solution at room temperature, solid at 100° C., 1M acid and 0.5M base at room temperature and 60° C., solution at 60° C., photostability as a solid): stable to degradation
